The values that follow come from ChEMBL document CHEMBL1201862, “PubChem BioAssay data set” (2004).

A short description of assay [1]: blockers of CRF-binding protein–CRF-R2 complex – cell-based, uHTS hits, 384-well, dose response (AID 651639). Format: functional, Homo sapiens. The settings on record: read-out: IC50_Mean.
Assay [2] is described as follows: fluconazole-exposed Candida albicans growth modulators – fluorescence, retest, confirmation (AID 2467). The format is functional, cell-based.
For assay [3], the target named is T1, Zinc finger protein mex-5 (Caenorhabditis elegans, UniProt Q9XUB2).
T1 sequence (Q9XUB2 whole entry): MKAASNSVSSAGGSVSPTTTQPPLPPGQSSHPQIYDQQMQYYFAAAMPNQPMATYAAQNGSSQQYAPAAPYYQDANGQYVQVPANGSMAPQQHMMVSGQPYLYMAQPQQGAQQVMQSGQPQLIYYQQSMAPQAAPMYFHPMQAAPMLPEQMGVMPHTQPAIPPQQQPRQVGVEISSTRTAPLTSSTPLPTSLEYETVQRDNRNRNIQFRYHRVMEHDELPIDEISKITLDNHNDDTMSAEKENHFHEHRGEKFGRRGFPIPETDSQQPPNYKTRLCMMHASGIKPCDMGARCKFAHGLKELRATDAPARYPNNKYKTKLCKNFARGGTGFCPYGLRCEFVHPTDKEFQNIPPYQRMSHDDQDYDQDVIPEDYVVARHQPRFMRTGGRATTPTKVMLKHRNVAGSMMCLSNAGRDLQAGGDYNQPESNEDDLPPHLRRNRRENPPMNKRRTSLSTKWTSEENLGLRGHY
In words: potency of MEX-5 RNA-binding blockers – biochemical, C. elegans, fluorescence polarization, dose response (AID 1960). (In general: In fluorescence polarisation assays a small probe gives low polarisation when free and higher when bound to something large.)

For assay [4], the target named is Photoreceptor-specific nuclear receptor (Homo sapiens, UniProt Q9Y5X4). The format is functional, cell-based.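 Note: CHO-S cells with Gal4-NCOR and VP16-NR2E3 two-hybrid luciferase reporter.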
A short description of assay [5]: NIH-3T3 fibroblast cytotoxicity, dose response, cytotoxicity control, cell-based, fluorescence, Alamar Blue, secondary assay (AID 2327).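 Note: NIH-3T3 mouse fibroblasts cultured with fluconazole at 8 µg/mL.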 The format is functional. Background: The colour change of resazurin is a common sign of viable cells or microbes.
Assay [6] deals with BJ. In words: BJ-TERT-LT-ST fibroblast viability loss – cell-based, RAS-independent, luminescence, dose response (AID 1935).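 Note: BJ fibroblasts immortalized with TERT plus LT and ST oncogenes.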 Format: functional. The settings on record: Homo sapiens.
The test system of another assay is Streptococcus. The assay is described as follows: GAS UMAA2166 growth inhibition – luminescence, BacTiterGlo, counter-screen for streptokinase expression inhibitor project, dose response (AID 1915).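 Note: potency for reduction of bacterial viability or growth.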 Format: functional, organism-based. In general terms: The purpose of a counterscreen is to sort out artefacts and off-target activity.
Assay [7] is described as follows: DRD fibroblast viability loss – cell-based, non-viral oncogenic, luminescence, dose response (AID 1934). The settings on record: Homo sapiens. Format: functional.
Assay [8] deals with BJ. The assay is described as follows: cells. Format: functional, cell-based. The settings on record: Homo sapiens.
In assay [9] the test system is BJ. In words: growth inhibition of engineered Ras-driven BJ cells – cell-based, alamar blue fluorescence, cherrypicked samples, dose response (AID 2631).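 Note: confirmatory dose-response assay in RAS-dependent BJ fibroblasts engineered with TERT, LT and ST, with cytotoxicity read by fluorescence.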 Format: functional. The settings on record: Homo sapiens.
The subject of another assay is Vero. The assay is described as follows: cells. Format: functional. The settings on record: Chlorocebus sabaeus.
The test system of assay [10] is BJ. The assay is described as follows: BJ-TERT fibroblast viability loss – cell-based, RAS-independent, luminescence, dose response (AID 1933). The settings on record: Homo sapiens. Format: functional.
Another assay addresses T2, Streptokinase A (Streptococcus pyogenes serotype M1, UniProt P10520).
T2 sequence (P10520 whole entry): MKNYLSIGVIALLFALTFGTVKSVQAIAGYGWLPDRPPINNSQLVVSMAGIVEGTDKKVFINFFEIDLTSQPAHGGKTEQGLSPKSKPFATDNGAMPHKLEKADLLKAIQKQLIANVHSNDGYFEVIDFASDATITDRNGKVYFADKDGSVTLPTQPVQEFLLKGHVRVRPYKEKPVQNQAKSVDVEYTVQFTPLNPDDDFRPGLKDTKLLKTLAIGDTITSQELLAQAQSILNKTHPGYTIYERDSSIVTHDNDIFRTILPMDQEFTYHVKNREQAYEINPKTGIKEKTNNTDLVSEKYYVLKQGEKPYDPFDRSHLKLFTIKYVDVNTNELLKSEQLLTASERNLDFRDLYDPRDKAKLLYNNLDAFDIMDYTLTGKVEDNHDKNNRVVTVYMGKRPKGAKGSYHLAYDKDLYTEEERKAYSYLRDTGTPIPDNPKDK
The assay is described as follows: viability-normalized secreted streptokinase activity reduction – plasminogen activation absorbance, OD405, dose response (AID 1914).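 Note: secreted streptokinase activity via plasminogen activation per viability signal from cell pellet.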 Format: functional, Streptococcus pyogenes M1 GAS.

Assay [11] concerns the target T3, RNA-binding protein pos-1 (Caenorhabditis elegans, UniProt G5EF15).
T3 sequence (G5EF15 whole entry): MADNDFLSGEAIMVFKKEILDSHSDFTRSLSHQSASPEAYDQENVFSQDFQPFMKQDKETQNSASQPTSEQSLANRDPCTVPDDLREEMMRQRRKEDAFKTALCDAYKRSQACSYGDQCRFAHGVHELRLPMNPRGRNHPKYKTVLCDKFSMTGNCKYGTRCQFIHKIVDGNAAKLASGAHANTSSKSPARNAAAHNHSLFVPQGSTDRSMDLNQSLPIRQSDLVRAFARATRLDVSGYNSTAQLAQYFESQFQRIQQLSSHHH
The assay is described as follows: disruptors of C. elegans POS-1 RNA interaction – biochemical, fluorescence polarization, dose response (AID 1964).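 Note: purified POS-1 fused to maltose binding protein made in E. coli; potency of compounds blocking POS-1 binding to fluorescent RNA.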

Assay [12] relates to Streptococcus sp. 'group A'. The assay is described as follows: Streptococcus pyogenes SK(-)GAS viability under kanamycin – luminescence, BacTiterGlo, confirmation, counter-screen for streptokinase expression inhibitor project, dose response (AID 1900). The format is functional, organism-based.
For assay [13], the target named is Nuclear receptor subfamily 5 group A member 2 (Homo sapiens, UniProt O00482). Format: functional, cell-based.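 Note: HEK293T cells transfected with LRH-1 and a StAR promoter luciferase reporter; potency for inhibitors that lower LRH-1 driven reporter light.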
Assay [14] in a line: nonselective StAR promoter luciferase inhibitors – cell-based, luminescence, luciferase reporter, counter-screen for LRH-1 inverse agonist project, dose response (AID 651969). The format is functional.
Assay [15] is described as follows: A Cell Based Secondary Assay To Explore Cytotoxicity of Compounds that Sensitize Mycobacterium Tuberculosis to Beta-Lactam Antibiotics. Format: functional.
In another assay the target is Steroidogenic factor 1 (Homo sapiens, UniProt Q13285). The assay is described as follows: Counterscreen for inverse agonists of the liver receptor homolog-1 (LRH-1; NR5A2): Luminescence-based cell-based high throughput dose response assay to identify inverse agonists of the Steroidogenic Factor 1 Nuclear Receptor (SF1; NR5A1). The format is functional.
The target in assay [16] is T4, Voltage-gated N-type calcium channel alpha-1B subunit/Amyloid beta A4 precursor protein-binding family A member 1 (Homo sapiens, UniProt Q00975+Q02410). The format is protein assay.
T4 sequence (Q00975 whole entry): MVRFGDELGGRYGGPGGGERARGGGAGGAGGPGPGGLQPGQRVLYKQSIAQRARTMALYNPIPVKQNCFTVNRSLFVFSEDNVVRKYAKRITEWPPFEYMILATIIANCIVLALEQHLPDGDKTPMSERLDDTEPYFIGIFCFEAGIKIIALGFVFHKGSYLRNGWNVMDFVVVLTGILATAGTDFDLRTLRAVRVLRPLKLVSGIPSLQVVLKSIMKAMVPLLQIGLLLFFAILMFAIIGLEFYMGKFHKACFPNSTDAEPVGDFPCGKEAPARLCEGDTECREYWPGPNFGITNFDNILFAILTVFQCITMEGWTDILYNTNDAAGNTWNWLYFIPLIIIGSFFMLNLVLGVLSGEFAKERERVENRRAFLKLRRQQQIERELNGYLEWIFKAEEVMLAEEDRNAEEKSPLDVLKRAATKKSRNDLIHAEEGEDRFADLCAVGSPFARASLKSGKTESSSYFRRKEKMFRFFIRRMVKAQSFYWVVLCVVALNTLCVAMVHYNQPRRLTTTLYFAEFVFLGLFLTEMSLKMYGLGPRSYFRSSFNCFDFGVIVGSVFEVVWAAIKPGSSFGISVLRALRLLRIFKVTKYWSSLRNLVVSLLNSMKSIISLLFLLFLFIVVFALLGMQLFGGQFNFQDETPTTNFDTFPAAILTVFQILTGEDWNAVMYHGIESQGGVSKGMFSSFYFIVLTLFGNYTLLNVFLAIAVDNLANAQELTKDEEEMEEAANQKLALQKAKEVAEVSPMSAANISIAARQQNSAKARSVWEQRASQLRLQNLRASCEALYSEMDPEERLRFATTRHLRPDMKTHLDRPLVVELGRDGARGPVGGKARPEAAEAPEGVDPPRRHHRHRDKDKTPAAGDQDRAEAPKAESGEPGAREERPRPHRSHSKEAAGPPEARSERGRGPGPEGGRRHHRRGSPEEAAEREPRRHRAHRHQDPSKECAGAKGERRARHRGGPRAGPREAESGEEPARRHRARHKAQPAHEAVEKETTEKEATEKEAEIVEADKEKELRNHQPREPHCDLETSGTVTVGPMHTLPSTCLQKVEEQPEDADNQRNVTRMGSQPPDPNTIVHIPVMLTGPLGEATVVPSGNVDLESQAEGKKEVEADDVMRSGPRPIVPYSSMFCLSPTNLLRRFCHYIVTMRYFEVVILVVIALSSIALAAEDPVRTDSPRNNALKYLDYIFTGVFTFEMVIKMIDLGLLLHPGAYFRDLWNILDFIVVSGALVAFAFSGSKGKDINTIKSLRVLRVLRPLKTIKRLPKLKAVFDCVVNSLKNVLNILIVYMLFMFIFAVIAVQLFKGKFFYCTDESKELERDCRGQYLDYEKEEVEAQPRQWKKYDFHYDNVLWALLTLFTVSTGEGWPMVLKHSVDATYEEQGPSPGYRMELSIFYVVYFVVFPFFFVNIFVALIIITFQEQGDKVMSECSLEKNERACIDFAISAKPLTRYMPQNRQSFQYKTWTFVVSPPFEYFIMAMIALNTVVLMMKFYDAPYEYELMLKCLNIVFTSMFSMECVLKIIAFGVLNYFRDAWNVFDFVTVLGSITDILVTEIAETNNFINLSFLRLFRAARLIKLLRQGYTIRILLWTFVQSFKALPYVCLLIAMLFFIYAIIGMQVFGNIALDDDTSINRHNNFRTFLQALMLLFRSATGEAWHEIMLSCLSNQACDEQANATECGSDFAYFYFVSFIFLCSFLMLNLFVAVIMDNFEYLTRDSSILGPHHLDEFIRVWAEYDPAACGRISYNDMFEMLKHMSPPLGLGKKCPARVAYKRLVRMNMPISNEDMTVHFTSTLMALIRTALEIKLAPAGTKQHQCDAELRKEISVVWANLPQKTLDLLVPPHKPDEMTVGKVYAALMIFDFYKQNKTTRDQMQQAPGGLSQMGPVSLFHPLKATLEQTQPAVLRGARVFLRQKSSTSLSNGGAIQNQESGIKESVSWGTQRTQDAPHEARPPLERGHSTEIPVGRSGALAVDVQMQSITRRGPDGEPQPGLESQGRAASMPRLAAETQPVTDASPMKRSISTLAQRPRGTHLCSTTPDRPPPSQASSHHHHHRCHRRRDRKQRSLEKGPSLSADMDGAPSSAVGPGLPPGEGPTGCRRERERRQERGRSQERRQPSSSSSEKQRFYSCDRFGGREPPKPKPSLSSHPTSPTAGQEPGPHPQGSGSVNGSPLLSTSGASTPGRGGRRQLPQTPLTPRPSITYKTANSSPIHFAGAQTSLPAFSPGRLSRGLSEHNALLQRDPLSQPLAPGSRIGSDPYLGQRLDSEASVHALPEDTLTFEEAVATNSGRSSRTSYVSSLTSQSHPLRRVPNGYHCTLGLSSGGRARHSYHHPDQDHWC
T4 sequence (Q02410 whole entry): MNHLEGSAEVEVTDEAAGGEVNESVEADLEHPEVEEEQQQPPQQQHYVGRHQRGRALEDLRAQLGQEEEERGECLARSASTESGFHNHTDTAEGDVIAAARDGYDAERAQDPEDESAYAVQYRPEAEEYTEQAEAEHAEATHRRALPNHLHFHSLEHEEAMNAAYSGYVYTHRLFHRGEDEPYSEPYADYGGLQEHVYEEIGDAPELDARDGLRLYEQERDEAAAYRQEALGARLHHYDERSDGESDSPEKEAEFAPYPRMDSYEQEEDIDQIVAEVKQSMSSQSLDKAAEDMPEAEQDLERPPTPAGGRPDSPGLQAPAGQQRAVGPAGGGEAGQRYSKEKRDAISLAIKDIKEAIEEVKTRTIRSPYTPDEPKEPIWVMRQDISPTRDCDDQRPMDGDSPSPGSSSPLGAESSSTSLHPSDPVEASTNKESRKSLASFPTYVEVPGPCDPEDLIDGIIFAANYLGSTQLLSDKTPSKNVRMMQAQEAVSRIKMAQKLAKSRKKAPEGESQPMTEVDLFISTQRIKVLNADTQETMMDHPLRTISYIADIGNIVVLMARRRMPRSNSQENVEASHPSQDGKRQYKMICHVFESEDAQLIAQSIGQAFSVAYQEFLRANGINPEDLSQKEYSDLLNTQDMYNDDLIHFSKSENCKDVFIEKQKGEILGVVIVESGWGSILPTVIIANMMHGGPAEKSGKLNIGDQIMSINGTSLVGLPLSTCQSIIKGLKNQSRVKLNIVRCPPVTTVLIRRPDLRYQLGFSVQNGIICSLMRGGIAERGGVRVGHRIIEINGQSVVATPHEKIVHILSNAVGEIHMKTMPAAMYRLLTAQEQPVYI
Assay [17] addresses T5, Tyrosine-protein phosphatase non-receptor type 11 (Homo sapiens, UniProt Q06124).
T5 sequence (Q06124 whole entry): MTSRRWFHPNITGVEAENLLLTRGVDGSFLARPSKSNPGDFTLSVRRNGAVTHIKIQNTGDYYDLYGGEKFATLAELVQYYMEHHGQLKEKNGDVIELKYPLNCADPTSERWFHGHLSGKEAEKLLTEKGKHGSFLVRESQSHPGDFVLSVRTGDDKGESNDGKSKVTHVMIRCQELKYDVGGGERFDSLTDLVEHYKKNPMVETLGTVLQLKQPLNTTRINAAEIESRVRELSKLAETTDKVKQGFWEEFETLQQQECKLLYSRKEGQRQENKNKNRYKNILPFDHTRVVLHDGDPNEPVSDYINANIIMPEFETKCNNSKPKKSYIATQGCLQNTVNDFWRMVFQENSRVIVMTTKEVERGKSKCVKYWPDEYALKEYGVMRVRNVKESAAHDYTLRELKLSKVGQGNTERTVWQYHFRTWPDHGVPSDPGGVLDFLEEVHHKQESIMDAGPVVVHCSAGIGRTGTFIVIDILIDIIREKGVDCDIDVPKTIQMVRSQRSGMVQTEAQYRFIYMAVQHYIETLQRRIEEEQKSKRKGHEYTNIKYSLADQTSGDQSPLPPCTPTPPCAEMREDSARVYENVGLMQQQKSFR
The assay is described as follows: PTPN11 enzyme inhibitors – biochemical, selectivity assay for STEP inhibitor project, dose response (AID 602367). The format is functional. The settings on record: read-out: IC50_Mean.

In assay [18] the target is T4, Voltage-gated N-type calcium channel alpha-1B subunit/Amyloid beta A4 precursor protein-binding family A member 1. The format is protein assay. This is another data set of the same source.
Assay [19] deals with Beta-lactamase (Pseudomonas aeruginosa, UniProt Q79MP6).
Beta-lactamase (Pseudomonas aeruginosa, UniProt Q79MP6), sequence (Q79MP6 whole entry): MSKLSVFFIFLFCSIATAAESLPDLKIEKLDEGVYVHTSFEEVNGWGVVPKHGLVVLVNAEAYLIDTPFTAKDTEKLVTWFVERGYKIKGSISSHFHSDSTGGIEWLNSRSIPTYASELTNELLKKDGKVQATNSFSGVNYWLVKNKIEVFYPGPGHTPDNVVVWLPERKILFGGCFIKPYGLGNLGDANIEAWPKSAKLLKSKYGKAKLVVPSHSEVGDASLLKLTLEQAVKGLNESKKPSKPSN
In assay [20] the target is T6, Low molecular weight phosphotyrosine protein phosphatase (Homo sapiens, UniProt P24666).
T6 sequence (P24666 whole entry): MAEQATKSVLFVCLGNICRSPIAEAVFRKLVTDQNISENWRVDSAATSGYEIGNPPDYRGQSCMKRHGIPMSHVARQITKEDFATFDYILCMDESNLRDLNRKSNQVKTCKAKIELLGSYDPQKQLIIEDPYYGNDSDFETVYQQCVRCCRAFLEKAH
The format is functional. The settings on record: read-out: IC50_Mean.

The target in assay [21] is Tyrosine-protein phosphatase non-receptor type 22 (Homo sapiens, UniProt Q9Y2R2). The assay is described as follows: lymphoid phosphatase LYP inhibitors – biochemical, selectivity assay for STEP inhibitor project, dose response (AID 624241). The format is functional.
Tyrosine-protein phosphatase non-receptor type 22, sequence (Q9Y2R2 whole entry): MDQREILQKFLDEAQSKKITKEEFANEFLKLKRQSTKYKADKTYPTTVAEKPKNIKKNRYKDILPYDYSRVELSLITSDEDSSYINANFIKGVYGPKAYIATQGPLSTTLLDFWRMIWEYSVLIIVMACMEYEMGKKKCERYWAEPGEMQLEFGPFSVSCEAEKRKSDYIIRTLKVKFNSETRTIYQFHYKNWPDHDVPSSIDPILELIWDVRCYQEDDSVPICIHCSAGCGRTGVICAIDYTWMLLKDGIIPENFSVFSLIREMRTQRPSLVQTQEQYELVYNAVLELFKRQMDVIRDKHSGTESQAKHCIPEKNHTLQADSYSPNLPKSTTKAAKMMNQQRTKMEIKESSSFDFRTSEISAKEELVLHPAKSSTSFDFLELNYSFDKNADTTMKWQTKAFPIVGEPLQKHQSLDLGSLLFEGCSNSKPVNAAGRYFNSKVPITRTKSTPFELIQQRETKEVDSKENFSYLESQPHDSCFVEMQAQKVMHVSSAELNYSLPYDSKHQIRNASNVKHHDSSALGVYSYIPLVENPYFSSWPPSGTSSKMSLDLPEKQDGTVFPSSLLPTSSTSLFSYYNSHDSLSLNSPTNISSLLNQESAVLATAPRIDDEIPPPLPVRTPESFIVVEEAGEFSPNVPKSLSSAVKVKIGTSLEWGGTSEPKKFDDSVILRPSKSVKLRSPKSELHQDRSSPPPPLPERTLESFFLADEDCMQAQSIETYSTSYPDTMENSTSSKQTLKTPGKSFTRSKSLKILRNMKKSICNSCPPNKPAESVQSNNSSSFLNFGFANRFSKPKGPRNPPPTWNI
In assay [22] the target is Dual specificity protein phosphatase 3 (Homo sapiens, UniProt P51452). The assay is described as follows: VHR phosphatase inhibition, dose response, selectivity assay for STEP inhibitor project, biochemical (AID 602374). The format is functional. The settings on record: read-out: IC50_Mean.
Dual specificity protein phosphatase 3, sequence (P51452 whole entry): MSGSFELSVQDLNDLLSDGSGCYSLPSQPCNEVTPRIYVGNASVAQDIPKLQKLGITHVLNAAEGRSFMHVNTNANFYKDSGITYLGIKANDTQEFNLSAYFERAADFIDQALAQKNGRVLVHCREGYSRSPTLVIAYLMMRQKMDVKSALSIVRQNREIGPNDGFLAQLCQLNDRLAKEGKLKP
For assay [23], the target named is T6, Low molecular weight phosphotyrosine protein phosphatase. Format: functional. The settings on record: read-out: IC50_Mean. This is another data set of the same source.
In the next assay the target is Beta Lactamase (Pseudomonas aeruginosa, UniProt Q932Y6).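 Note: confirmatory high-throughput screen measuring VIM-2 metallo-beta-lactamase inhibition by epi-absorbance in dose response.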
Beta Lactamase, sequence (Q932Y6 whole entry): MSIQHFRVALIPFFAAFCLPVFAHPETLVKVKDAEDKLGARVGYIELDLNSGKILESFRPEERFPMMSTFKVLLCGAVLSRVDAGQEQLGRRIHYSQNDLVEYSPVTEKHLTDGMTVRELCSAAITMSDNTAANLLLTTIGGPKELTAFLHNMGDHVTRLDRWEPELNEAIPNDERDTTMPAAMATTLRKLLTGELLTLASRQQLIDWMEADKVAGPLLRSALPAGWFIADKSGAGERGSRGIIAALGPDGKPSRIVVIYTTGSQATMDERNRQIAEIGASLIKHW
Assay [24] deals with T7, Tyrosine-protein phosphatase non-receptor type 5 (Homo sapiens, UniProt P54829).
T7 sequence (P54829 whole entry): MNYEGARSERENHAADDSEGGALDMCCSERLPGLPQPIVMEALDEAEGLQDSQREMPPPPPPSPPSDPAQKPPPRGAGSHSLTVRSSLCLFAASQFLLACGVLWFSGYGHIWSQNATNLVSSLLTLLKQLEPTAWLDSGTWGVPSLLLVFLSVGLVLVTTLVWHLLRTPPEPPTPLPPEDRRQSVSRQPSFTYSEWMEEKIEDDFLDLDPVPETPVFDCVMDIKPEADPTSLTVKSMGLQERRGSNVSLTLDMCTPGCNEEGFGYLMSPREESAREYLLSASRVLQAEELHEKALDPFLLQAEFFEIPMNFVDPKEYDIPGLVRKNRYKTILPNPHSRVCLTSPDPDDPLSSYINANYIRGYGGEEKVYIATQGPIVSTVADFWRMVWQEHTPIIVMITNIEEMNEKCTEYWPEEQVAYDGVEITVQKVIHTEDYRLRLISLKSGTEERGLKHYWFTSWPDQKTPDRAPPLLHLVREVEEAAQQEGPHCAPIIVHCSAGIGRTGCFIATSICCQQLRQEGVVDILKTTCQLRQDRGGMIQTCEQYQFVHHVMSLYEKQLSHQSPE
The assay is described as follows: PTPN5 enzyme inhibition – biochemical, fluorescence intensity, uHTS hits, confirmation (AID 602372). The format is functional. The settings on record: read-out: IC50_Mean.

Assay [25] deals with Beta-lactamase (Salmonella choleraesuis (strain SC-B67), UniProt Q5J463).
Beta-lactamase (Salmonella choleraesuis (strain SC-B67), UniProt Q5J463), sequence (Q5J463 whole entry): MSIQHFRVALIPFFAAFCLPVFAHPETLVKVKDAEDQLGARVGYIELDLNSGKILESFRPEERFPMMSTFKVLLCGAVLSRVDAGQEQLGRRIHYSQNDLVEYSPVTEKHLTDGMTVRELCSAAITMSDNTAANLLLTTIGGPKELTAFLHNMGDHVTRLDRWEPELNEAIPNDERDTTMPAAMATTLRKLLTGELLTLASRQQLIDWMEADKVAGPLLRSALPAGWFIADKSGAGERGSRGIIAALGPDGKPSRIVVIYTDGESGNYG

Activity calls are given as the source filed them.

For orientation: EC50 means the concentration that produces a half-maximal response. The term CC50 denotes the concentration that lowers cell viability or growth by half.

On to `CN(C(=O)COC(=O)CCc1nc(O)c2ccccc2n1)C1CCS(=O)(=O)C1` (stereo unspecified), for which the IC50 in assay [1] is > 20 µM (inactive).
Take `O=C(/C=C/c1ccc([N+](=O)[O-])o1)NNC(=O)c1ccc(F)cc1`: the EC50 in [2] was 1.24 µM (active); in [3], 24.8 µM (active); in assay [5] it was 4.1 µM (inconclusive); with BJ [6], > 150 µM (inconclusive); in the assay with Streptococcus it was 10.3 µM (active); in assay [7], 7.26 µM (active). Moreover, the EC50 with BJ [8] was 4.1 µM (inconclusive); with BJ [9], 2.93 µM (active); in the assay on BJ [10], 7.04 µM (inconclusive); at Streptokinase A, 13.9 µM (active); in assay [11] it was > 300 µM (not active); in assay [12], 2.58 µM (active). Moreover, the IC50 in assay [4] was 1.8 µM (active). Besides, the CC50 in the assay on Vero was 14.5 µM (active).
Consider `Cc1onc(NC(=O)c2ccc([N+](=O)[O-])o2)c1Br`, for which the IC50 in [13] was 1.33 µM (active); in [14] it was 35.9 µM (inactive); at Steroidogenic factor 1 it was 0.369 µM (active). The CC50 was 8.19 µM (active) in assay [15] and 20.8 µM (active) in the assay with Vero.
On to `C/C(=N\Nc1ccc(S(N)(=O)=O)cc1[N+](=O)[O-])c1cccs1`, for which the IC50 in assay [16] was 1.42 µM (active); in [17], 2.13 µM (active); in [18], > 50 µM (inactive); on Beta-lactamase [19] it was > 59.6 µM (inactive); in assay [20], > 80 µM (inactive); in assay [21], 81.3 µM (inactive). The IC50 in assay [22] is 3.04 µM (active); in assay [23], 38.2 µM (inactive); at Beta Lactamase, > 59.6 µM (inactive); in assay [24], 13.9 µM (active); at Beta-lactamase [25], > 59.6 µM (inactive).
